These results are taken from PubChem BioAssay AID1259407 (Chemical Carcinogenesis Research Information System (CCRIS), 2018).

The test system of the data set is CCRIS mutagenicity, Ames/micronucleus/aberration tests. Kind of data set: CCRIS mutagenicity studies.
The mark [1] stands for this setting: Test System: AMES SALMONELLA TYPHIMURIUM, Strain/Indicator: TA98, Metabolic Activation: NONE, Method: PREINCUBATION
[2] abbreviates: Test System: AMES SALMONELLA TYPHIMURIUM, Strain/Indicator: TA100, Metabolic Activation: NONE, Method: PREINCUBATION
[3] abbreviates: Test System: AMES SALMONELLA TYPHIMURIUM, Strain/Indicator: TA1535, Metabolic Activation: NONE, Method: PREINCUBATION
Where [4] appears, read: Test System: AMES SALMONELLA TYPHIMURIUM, Strain/Indicator: TA100, Metabolic Activation: NONE, Method: STANDARD PLATE.

Active and inactive are the calls of the source. How the calls were made is not given here.

On to `CC(C)(C)c1ccc(O)c(O)c1`, for which the mutagenic call was “inactive; negative” (Test System: AMES SALMONELLA TYPHIMURIUM, Strain/Indicator: TA97, Metabolic Activation: HAMSTER LIVER S-9, AROCLOR 1254 (10% OR 30%), Method: PREINCUBATION); “inactive; negative” (Test System: AMES SALMONELLA TYPHIMURIUM, Strain/Indicator: TA97, Metabolic Activation: NONE, Method: PREINCUBATION); “inactive; negative” (Test System: AMES SALMONELLA TYPHIMURIUM, Strain/Indicator: TA97, Metabolic Activation: RAT LIVER S-9, AROCLOR 1254 (10% OR 30%), Method: PREINCUBATION); “inactive; negative” (Test System: AMES SALMONELLA TYPHIMURIUM, Strain/Indicator: TA98, Metabolic Activation: HAMSTER LIVER S-9, AROCLOR 1254 (10% OR 30%), Method: PREINCUBATION); “inactive; negative” under setting [1]; “inactive; negative” (Test System: AMES SALMONELLA TYPHIMURIUM, Strain/Indicator: TA98, Metabolic Activation: RAT LIVER S-9, AROCLOR 1254 (10% OR 30%), Method: PREINCUBATION). Further, the mutagenic call is, setting by setting: (Test System: AMES SALMONELLA TYPHIMURIUM, Strain/Indicator: TA100, Metabolic Activation: HAMSTER LIVER S-9, AROCLOR 1254 (10% OR 30%), Method: PREINCUBATION) “inactive; negative”; under setting [2], “inactive; negative”; (Test System: AMES SALMONELLA TYPHIMURIUM, Strain/Indicator: TA100, Metabolic Activation: RAT LIVER S-9, AROCLOR 1254 (10% OR 30%), Method: PREINCUBATION) “inactive; negative”; (Test System: AMES SALMONELLA TYPHIMURIUM, Strain/Indicator: TA102, Metabolic Activation: HAMSTER LIVER S-9, AROCLOR 1254 (10% OR 30%), Method: PREINCUBATION) “inactive; negative”; (Test System: AMES SALMONELLA TYPHIMURIUM, Strain/Indicator: TA102, Metabolic Activation: NONE, Method: PREINCUBATION) “inactive; negative”; (Test System: AMES SALMONELLA TYPHIMURIUM, Strain/Indicator: TA102, Metabolic Activation: RAT LIVER S-9, AROCLOR 1254 (10% OR 30%), Method: PREINCUBATION) “inactive; negative”. For the same compound, the mutagenic call is “inactive; negative” (Test System: AMES SALMONELLA TYPHIMURIUM, Strain/Indicator: TA104, Metabolic Activation: HAMSTER LIVER S-9, AROCLOR 1254 (10% OR 30%), Method: PREINCUBATION); “inactive; negative” (Test System: AMES SALMONELLA TYPHIMURIUM, Strain/Indicator: TA104, Metabolic Activation: NONE, Method: PREINCUBATION); “inactive; negative” (Test System: AMES SALMONELLA TYPHIMURIUM, Strain/Indicator: TA104, Metabolic Activation: RAT LIVER S-9, AROCLOR 1254 (10% OR 30%), Method: PREINCUBATION); “inactive; negative” (Test System: AMES SALMONELLA TYPHIMURIUM, Strain/Indicator: TA1535, Metabolic Activation: HAMSTER LIVER S-9, AROCLOR 1254 (10% OR 30%), Method: PREINCUBATION); “inactive; negative” under setting [3]; “inactive; negative” (Test System: AMES SALMONELLA TYPHIMURIUM, Strain/Indicator: TA1535, Metabolic Activation: RAT LIVER S-9, AROCLOR 1254 (10% OR 30%), Method: PREINCUBATION).
Turning to `Cc1c2cccc(F)c2c(C)c2c1ccc1ccccc12`, the mutagenic call (Test System: CHINESE HAMSTER V-79, Strain/Indicator: V-79/OUABAIN, Metabolic Activation: CELL-MEDIATED, Method: STANDARD PLATE) was “active; positive”.
`CC(Br)C(=O)NCc1ccc(Cl)cc1` (stereo not drawn): the mutagenic call runs as follows: (Test System: AMES SALMONELLA TYPHIMURIUM, Strain/Indicator: TA100, Metabolic Activation: MOUSE, LIVER, S-9, AROCLOR 1254, Method: STANDARD PLATE) “active; positive”; under setting [4], “active; positive”.
As for `CC12CCC(CC1)C(C)(C)O2`, the mutagenic call reads like this: (End Point: IN VITRO CHROMOSOMAL ABERRATIONS, Test System: CHINESE HAMSTER OVARY CELLS, Metabolic Activation: NONE) “inactive; negative; precipitation occurred at 663 ug/ml”; (End Point: IN VITRO CHROMOSOMAL ABERRATIONS, Test System: CHINESE HAMSTER OVARY CELLS, Metabolic Activation: RAT, LIVER, S-9, AROCLOR 1254) “inactive; negative; precipitation occurred at all doses”; (Test System: AMES SALMONELLA TYPHIMURIUM, Strain/Indicator: TA97A, Metabolic Activation: NONE, Method: STANDARD PLATE) “inactive; negative”; (Test System: AMES SALMONELLA TYPHIMURIUM, Strain/Indicator: TA97A, Metabolic Activation: RAT LIVER S-9, AROCLOR 1254, Method: STANDARD PLATE) “inactive; negative”; (Test System: AMES SALMONELLA TYPHIMURIUM, Strain/Indicator: TA98, Metabolic Activation: NONE, Method: STANDARD PLATE) “inactive; negative”; (Test System: AMES SALMONELLA TYPHIMURIUM, Strain/Indicator: TA98, Metabolic Activation: RAT LIVER S-9, AROCLOR 1254, Method: STANDARD PLATE) “inactive; negative”. Moreover, the mutagenic call is “inactive; negative” under setting [4]; “inactive; negative” (Test System: AMES SALMONELLA TYPHIMURIUM, Strain/Indicator: TA100, Metabolic Activation: RAT LIVER S-9, AROCLOR 1254, Method: STANDARD PLATE); “inactive; negative” (Test System: AMES SALMONELLA TYPHIMURIUM, Strain/Indicator: TA102, Metabolic Activation: NONE, Method: STANDARD PLATE); “inactive; negative” (Test System: AMES SALMONELLA TYPHIMURIUM, Strain/Indicator: TA102, Metabolic Activation: RAT LIVER S-9, AROCLOR 1254, Method: STANDARD PLATE); “inactive; negative” (Test System: E. coli, Strain/Indicator: WP2 IC185 trpE65, Metabolic Activation: None, Method: Plate incorporation); “inactive; negative” (Test System: E. coli, Strain/Indicator: WP2 IC202 trpE65 oxyR/pKM101, Metabolic Activation: None, Method: Plate incorporation).
For the compound `C=CCc1ccc(OC)c(OC)c1`, the mutagenic call is “inactive; negative” (Test System: AMES SALMONELLA TYPHIMURIUM, Strain/Indicator: TA98, Metabolic Activation: HAMSTER, LIVER, S-9, AROCLOR 1254, Method: PREINCUBATION); “inactive; negative” under setting [1]; “inactive; negative” (Test System: AMES SALMONELLA TYPHIMURIUM, Strain/Indicator: TA98, Metabolic Activation: RAT, LIVER, S-9, AROCLOR 1254, Method: PREINCUBATION); “inactive; negative” (Test System: AMES SALMONELLA TYPHIMURIUM, Strain/Indicator: TA100, Metabolic Activation: HAMSTER, LIVER, S-9, AROCLOR 1254, Method: PREINCUBATION); “inactive; negative” under setting [2]; “inactive; negative” (Test System: AMES SALMONELLA TYPHIMURIUM, Strain/Indicator: TA100, Metabolic Activation: RAT, LIVER, S-9, AROCLOR 1254, Method: PREINCUBATION). Besides, the mutagenic call is “inactive; negative” (Test System: AMES SALMONELLA TYPHIMURIUM, Strain/Indicator: TA1535, Metabolic Activation: HAMSTER, LIVER, S-9, AROCLOR 1254, Method: PREINCUBATION); “inactive; negative” under setting [3]; “inactive; negative” (Test System: AMES SALMONELLA TYPHIMURIUM, Strain/Indicator: TA1535, Metabolic Activation: RAT, LIVER, S-9, AROCLOR 1254, Method: PREINCUBATION); “inactive; negative” (Test System: AMES SALMONELLA TYPHIMURIUM, Strain/Indicator: TA1537, Metabolic Activation: HAMSTER, LIVER, S-9, AROCLOR 1254, Method: PREINCUBATION); “inactive; negative” (Test System: AMES SALMONELLA TYPHIMURIUM, Strain/Indicator: TA1537, Metabolic Activation: NONE, Method: PREINCUBATION); “inactive; negative” (Test System: AMES SALMONELLA TYPHIMURIUM, Strain/Indicator: TA1537, Metabolic Activation: RAT, LIVER, S-9, AROCLOR 1254, Method: PREINCUBATION).
Regarding `C=C1C[C@@]23CC[C@H]4[C@@](C)(CCC[C@@]4(C)C(=O)O[C@@H]4O[C@H](CO)[C@@H](O)[C@H](O)[C@H]4O)[C@@H]2CC[C@]1(O[C@@H]1O[C@H](CO)[C@@H](O)[C@H](O[C@@H]2O[C@H](CO)[C@@H](O)[C@H](O)[C@H]2O)[C@H]1O[C@@H]1O[C@@H](C)[C@H](O)[C@@H](O)[C@H]1O)C3`, the mutagenic call (Test System: AMES SALMONELLA TYPHIMURIUM, Strain/Indicator: TM677, Metabolic Activation: RAT, LIVER, S-9, AROCLOR 1254, Method: PREINCUBATION) is “inactive; negative”.
As for `CC1(C)C[C@H]2C=C(C=O)[C@@]3(C=O)C[C@@]3(C)[C@H]2C1`, the mutagenic call (Test System: CHINESE HAMSTER V-79, Strain/Indicator: V-79/6-THIOGUANINE (HGPRT), Metabolic Activation: NONE) was “inactive; negative”.
For the compound `Cc1ccc2c3c(cc4ccccc4c13)-c1ccccc1-2`, under “Test System: AMES SALMONELLA TYPHIMURIUM, Strain/Indicator: TA100, Metabolic Activation: RAT, LIVER, S-9, AROCLOR 1254”, the mutagenic call is “active; positive”.
